The values that follow come from patent publication US20230127898A1, “HEPATITIS B CAPSID ASSEMBLY MODULATORS” (Venatorx Pharmaceuticals, Inc., priority 2020, published 2023).

Molecules are shown by their SMILES. Where two headings read alike, the source gives them in different places. Some results are limits rather than exact numbers.

Data set [1] has as its system HBV replication in HepAD38 cells. Put plainly: In vitro antiviral assay: extracellular HBV DNA by QPCR in HepAD38 cells. The format is cell-based, HBV (genotype D, serotype ayw). The settings on record: Hepatitis B virus, 168 h. How it is done: The anti-HBV activity of the Capsid Assembly Modulators (CAMs) was evaluated in a cell based assay utilizing the human hepatoma cell line HepAD38 (Ladner, S K., et al., 1998). HepAD38 cells were derived from the parental line, HepG2, that were stably transfected with a construct containing an HBV genome (genotype D, serotype ayw) under the control of a tetracycline repressible CMV promoter. Upon removal of tetracycline, viral pre-genomic RNA (pgRNA) and mRNAs are expressed and infectious viral particles are assembled and secreted into the culture medium providing a reliable, robust system to measure multiple steps of the HBV life cycle. Disruption of capsid formation results in reduced levels of DNA-containing virus particles that are released into the culture supernatant. To quantify the effect of CAMs on HBV replication, we developed a sensitive QPCR-based assay that measures extracellular HBV DNA levels upon treatment of HepAD38 cells with various concentrations of test compounds.
HepAD38 cells were maintained in DMEM/F12 medium containing 10% FBS, 400 μg/mL G418 and 0.3 μg/mL tetracycline (tet+media) to maintain repression of HBV replication. To evaluate each compound, HepAD38 cells were seeded into 24-well collagen coated culture plates (Corning BioCoat) at a density of 200,000 cells per well in 1 mL of medium without tetracycline (tet-media) and allowed to adhere overnight at 37° C., 5% CO2 in a humidified incubator. The following day, media was refreshed and a dose range of each compound was prepared by performing 1 log10 serial dilutions in 100% DMSO at 200×the desired assay concentration. Dilutions were then added to the cells resulting in a final dose range of 1 μM to 10 pM and the plates were returned to the incubator. Following 7 days of incubation, culture supernatants were harvested and HBV DNA levels were evaluated by QPCR and compared to the vehicle treated control wells (i.e. DMSO alone).
To quantify HBV DNA levels, cell culture supernatants were diluted 1:10 in sterile, nuclease-free water (Gibco). The diluted supernatants were subsequently added to a PCR master mix containing 1×Roche Light Cycler Master Mix, 0.5 μM forward primer, 0.5 μM reverse primer, 0.2 μM Roche Universal Probe Library Probe 25. The volume was brought to 20 μL with nuclease-free water and amplification of the HBV target sequence was performed using a Roche LightCycler 480 QPCR instrument. PCR extended out to 45 cycles with each cycle consisting of a denaturation step at 95° C. for 10 sec., followed by an annealing step at 60° C. for 10 sec. and a brief extension step at 72° C. for 1 sec.
Extracellular HBV DNA levels, expressed in copies/mL, were determined by comparison to a standard curve (10^2-10^9 copies/mL) using the Roche LightCycler analysis software. These values were subsequently converted to percent inhibition of HBV replication by dividing the HBV DNA levels in the experimental samples with those obtained from the vehicle control (˜1-2×10^5 copies/mL). Potency, expressed as an EC50(the effective concentration required to inhibit 50% of HBV replication), was calculated from the dose-response curve using a 4-parameter non-linear regression analysis (GraphPad Prism). The nucleoside analog inhibitor entecavir was used as a positive control to validate each assay run. The EC50 value of entecavir in the HepAD38 assay was 0.5 nM, as previously reported in the literature.

Data set [2] is described as follows: In vitro cytotoxicity assay (MTT cell viability) in HepG2 cells. The format is cell-based. The conditions noted are these: human. How it is done: To evaluate antiviral selectivity, the cytotoxic activity of each compound was determined using a standard cell viability assay performed on the parental HepG2 cell line. Cell viability was determined by measuring the conversion of 3-(4,5-dimethylthiazol-2-yl)-2,5-diphenyltetrazolium bromide (MTT) to the insoluble formazan salt crystal that occurs in live cells. Briefly, HepG2 cells were seeded in 96-well plates at a density of 20,000 cells per well in EMEM+10% FBS (complete growth medium) and allowed to adhere overnight in a 37° C., 5% CO2 humidified incubator. The next day, test agents were prepared by performing 8 half-log10 serial dilutions in 100% DMSO at 200×the final desired concentration in the assay. Compounds were tested over a range of concentrations from 30 μM to 1.0 nM in the assay. HepG2 cells were incubated in the presence of various concentrations of CAMs for 7 days in a 37° C., 5% CO2 humidified incubator. At the completion of the 7-day incubation period, MTT reagent was added to each well and the mixture was incubated for an additional 3-4 hours. At the completion of the incubation period, all wells were aspirated to remove the culture medium. The formazan crystals were solubilized from the cell monolayers with 100% DMSO. Plates were briefly mixed on an orbital shaker and absorbance was measured at 492 nm using a Perkin-Elmer EnVision multi-label plate reader. All absorbance values were converted to a percentage of the signal obtained from the vehicle treated controls. Absorbance values at 492 nm are directly proportional to the number of viable cells present in the sample. A CC50 value (cytotoxic concentration that results in loss of 50% cell viability) was calculated from the dose-response curve by 4-parameter, non-linear regression analysis using the GraphPad Prism software. The positive control compound, staurosporine, reduced the viability of HepG2 cells in a dose-dependent manner (CC50=100 nM).

Where [3] appears, read: 7 days incubation, read-out: Anti-HBV EC50.

For the compound `Cc1c(C(=O)Nc2ccc(F)c(F)c2)c2c(n1C)C(=O)NC(C)(C)CC2` [Example 2, N-(3,4-difluorophenyl)-1,2,6,6-tetramethyl-8-oxo-1,4,5,6,7,8-hexahydropyrrolo[2,3-c]azepine-3-carboxamide], in data set [1] (setting [3]), the EC50 (commonly the concentration needed to bring the measured effect to its halfway point) fell in the range of 50 to 499 nM. The 50% cytotoxic concentration (CC50) (as a rule, the concentration at which the toxic effect on the cells reaches its halfway point) at 7 days in data set [2] lay within 5000 to 30000 nM. In the case of `CCn1c(C)c2c(c1C(=O)Nc1ccc(F)c(C)c1)CCC(C)(C)NC2=O` [Example 3, 2-ethyl-N-(4-fluoro-3-methylphenyl)-3,6,6-trimethyl-4-oxo-2,4,5,6,7,8-hexahydropyrrolo[3,4-c]azepine-1-carboxamide], the EC50 in data set [1] (setting [3]) is under 50 nM. Also, the CC50 at 7 days in data set [2] is over 30000 nM.

In the case of `Cc1cc(NC(=O)c2c3c(c(C)n2C)C(=O)NC(C)(C)CC3)ccc1F` [Example 4, N-(4-fluoro-3-methylphenyl)-2,3,6,6-tetramethyl-4-oxo-2,4,5,6,7,8-hexahydropyrrolo[3,4-c]azepine-1-carboxamide], the EC50 in data set [1] (setting [3]) was under 50 nM. This compound returned a CC50 at 7 days in data set [2] of over 30000 nM. On to `Cc1c2c(c(C(=O)Nc3cc(F)c(F)c(F)c3)n1C)CCC(C)(C)NC2=O` [Example 5, 2,3,6,6-tetramethyl-4-oxo-N-(3,4,5-trifluorophenyl)-2,4,5,6,7,8-hexahydropyrrolo[3,4-c]azepine-1-carboxamide], for which, in data set [1] (setting [3]), the EC50 was over 1000 nM. In data set [2], the CC50 at 7 days is over 30000 nM. In the case of `Cc1cc(NC(=O)c2c3c(c(C)n2C)C(=O)NC(C)(C)CC3)cnc1F` [Example 6, N-(6-fluoro-5-methylpyridin-3-yl)-2,3,6,6-tetramethyl-4-oxo-2,4,5,6,7,8-hexahydropyrrolo[3,4-c]azepine-1-carboxamide], the 50% effective concentration (EC50) in data set [1] (setting [3]) was over 1000 nM. The same compound gave a half-maximal cytotoxic concentration (CC50) at 7 days in data set [2] of over 30000 nM. Consider `Cc1c2c(c(C(=O)Nc3ccnc(F)c3)n1C)CCC(C)(C)NC2=O` [Example 7, N-(2-fluoropyridin-4-yl)-2,3,6,6-tetramethyl-4-oxo-2,4,5,6,7,8-hexahydropyrrolo[3,4-c]azepine-1-carboxamide], for which the EC50 in data set [1] (setting [3]) was 50 to 499 nM. Also, in data set [2], the CC50 at 7 days is over 30000 nM. Consider `Cc1c2c(c(C(=O)Nc3cccc(Cl)c3)n1C)CCC(C)(C)NC2=O` [Example 8, N-(3-chlorophenyl)-2,3,6,6-tetramethyl-4-oxo-2,4,5,6,7,8-hexahydropyrrolo[3,4-c]azepine-1-carboxamide], for which, in data set [1] (setting [3]), the EC50 is 50 to 499 nM. This compound had a half-maximal cytotoxic concentration (CC50) at 7 days in data set [2] of over 30000 nM.

As for `Cc1c2c(c(C(=O)Nc3cccc(C(F)F)c3)n1C)CCC(C)(C)NC2=O` [Example 9, N-(3-(difluoromethyl)phenyl)-2,3,6,6-tetramethyl-4-oxo-2,4,5,6,7,8-hexahydropyrrolo[3,4-c]azepine-1-carboxamide], the concentration giving a half-maximal response (EC50) in data set [1] (setting [3]) fell in the range of 50 to 499 nM. For the same compound, the CC50 at 7 days in data set [2] is over 30000 nM. For the compound `Cc1ccc(F)c(NC(=O)c2c3c(c(C)n2C)C(=O)NC(C)(C)CC3)c1` [Example 10, N-(2-fluoro-5-methylphenyl)-2,3,6,6-tetramethyl-4-oxo-2,4,5,6,7,8-hexahydropyrrolo[3,4-c]azepine-1-carboxamide], the EC50 in data set [1] (setting [3]) was under 50 nM. For the same compound, in data set [2], the cytotoxic concentration (CC50) at 7 days is over 30000 nM.

`Cc1cc(F)cc(NC(=O)c2c3c(c(C)n2C)C(=O)NC(C)(C)CC3)c1` [Example 11, N-(3-fluoro-5-methylphenyl)-2,3,6,6-tetramethyl-4-oxo-2,4,5,6,7,8-hexahydropyrrolo[3,4-c]azepine-1-carboxamide]: the 50% effective concentration (EC50) in data set [1] (setting [3]) was under 50 nM. In data set [2], the half-maximal cytotoxic concentration (CC50) at 7 days is over 30000 nM. Take `Cc1c2c(c(C(=O)Nc3ccc(F)c(C(F)F)c3)n1C)CCC(C)(C)NC2=O` [Example 12, N-(3-(difluoromethyl)-4-fluorophenyl)-2,3,6,6-tetramethyl-4-oxo-2,4,5,6,7,8-hexahydropyrrolo[3,4-c]azepine-1-carboxamide]: in data set [1] (setting [3]), the EC50 was under 50 nM. Besides, the CC50 at 7 days in data set [2] was over 30000 nM.

In the case of `C=C1c2c(c(C)n(C)c2C(=O)Nc2ccc(F)c(C)c2)C(=O)NC1C` (centres unmarked) [Example 22, N-(4-fluoro-3-methylphenyl)-2,3,6-trimethyl-7-methylene-4-oxo-4,5,6,7-tetrahydro-2H-pyrrolo[3,4-c]pyridine-1-carboxamide], the concentration giving a half-maximal response (EC50) in data set [1] (setting [3]) lay in the range of 500 to 1000 nM. In data set [2], this compound showed a CC50 at 7 days of 500 to 4990 nM. Taken in the same sequence, the figures for `Cc1cc(NC(=O)c2c3c(c(C)n2C)C(=O)NC(C)C3C)ccc1F` (centres unmarked) [Example 23, N-(4-fluoro-3-methylphenyl)-2,3,6,7-tetramethyl-4-oxo-4,5,6,7-tetrahydro-2H-pyrrolo[3,4-c]pyridine-1-carboxamide] were under 50 nM and over 30000 nM.

For `Cc1cc(NC(=O)c2c3c(c(C)n2C)C(=O)NC(C)CC3)ccc1F` (centres unmarked) [Example 24, N-(4-fluoro-3-methylphenyl)-2,3,6-trimethyl-4-oxo-2,4,5,6,7,8-hexahydropyrrolo[3,4-c]azepine-1-carboxamide], in data set [1] (setting [3]), the EC50 was under 50 nM. The CC50 at 7 days in data set [2] is over 30000 nM. The matching figures for `Cc1cc(NC(=O)c2c3c(n(C)c2C)C(=O)NC(C)CC3)ccc1F` (centres unmarked) [Example 25, N-(4-fluoro-3-methylphenyl)-1,2,6-trimethyl-8-oxo-1,4,5,6,7,8-hexahydropyrrolo[2,3-c]azepine-3-carboxamide]: under 50 nM and over 30000 nM.

For `Cc1cc(NC(=O)c2c3c(C)c(C)[nH]c(=O)c3c(C)n2C)ccc1F` [Example 45, N-(4-fluoro-3-methylphenyl)-2,3,6,7-tetramethyl-4-oxo-4,5-dihydro-2H-pyrrolo[3,4-c]pyridine-1-carboxamide], the 50% effective concentration (EC50) in data set [1] (setting [3]) was in the range of 500 to 1000 nM. For the same compound, the 50% cytotoxic concentration (CC50) at 7 days in data set [2] lay within 5000 to 30000 nM. Taken in the same sequence, the figures for `Cc1cc(NC(=O)c2c3c(c(C)n2C)C(=O)N[C@@H](C)C3)ccc1F` [Example 46, (S)-N-(4-fluoro-3-methylphenyl)-2,3,6-trimethyl-4-oxo-4,5,6,7-tetrahydro-2H-pyrrolo[3,4-c]pyridine-1-carboxamide] were under 50 nM and over 30000 nM. Take `Cc1cccc(NC(=O)c2c3c(c(C)n2C)C(=O)N[C@@H](C)C3)c1F` [Example 47, (S)-N-(2-fluoro-3-methylphenyl)-2,3,6-trimethyl-4-oxo-4,5,6,7-tetrahydro-2H-pyrrolo[3,4-c]pyridine-1-carboxamide]: in data set [1] (setting [3]), the EC50 fell in the range of 500 to 1000 nM. The CC50 at 7 days in data set [2] is over 30000 nM. For `C=C1[C@H](CO)[C@@H](O)C[C@@H]1n1cnc2c(=O)[nH]c(N)nc21` [entecavir, reference compound], the EC50 in data set [1] (positive control, 7 days, read-out: EC50 in the HepAD38 assay) was found to be 0.5 nM. For the compound `CN[C@@H]1C[C@H]2O[C@@](C)([C@@H]1OC)n1c3ccccc3c3c4c(c5c6ccccc6n2c5c31)C(=O)NC4` [staurosporine, reference compound], the CC50 at 7 days in data set [2] (positive control, HepG2 cells, 7 days, MTT, read-out: CC50 (viability of HepG2 cells)) was determined as 100 nM.
